Source: ChEMBL document CHEMBL3885881, “DrugMatrix”

Species: Rattus norvegicus
Test: DrugMatrix - Regimen: Daily Repeat
Format: toxicity, organism-based, Sprague-Dawley
Design: regimen Daily Repeat, gender Male, age 6-8 weeks
Settings: in vivo, sc, route subcutaneous, […]; for ABSOLUTE BASOPHIL / ABSOLUTE EOSINOPHIL / ABSOLUTE LYMPHOCYTE / ABSOLUTE MONOCYTE / ABSOLUTE SEGMENTED NEUTROPHIL / BASOPHIL / EOSINOPHIL / ERYTHROCYTE COUNT / HEMATOCRIT / HEMOGLOBIN / LEUKOCYTE COUNT / LYMPHOCYTE / MEAN CORPUSCULAR HEMOGLOBIN / MEAN CORPUSCULAR HEMOGLOBIN CONCENTRATION / MEAN CORPUSCULAR VOLUME / MONOCYTE / NEUTROPHIL / NUCLEATED RED BLOOD CELLS / PLATELET COUNT: tissue Blood; for ALANINE AMINOTRANSFERASE / ALBUMIN / ALKALINE PHOSPHATASE / ASPARTATE AMINOTRANSFERASE / BLOOD UREA NITROGEN / CARBON DIOXIDE / CHLORIDE / CHOLESTEROL / CREATINE PHOSPHOKINASE / CREATININE / GLUCOSE / LACTATE DEHYDROGENASE / LIPASE / PHOSPHORUS / POTASSIUM / SODIUM / TOTAL BILIRUBIN / TOTAL PROTEIN / URIC ACID: tissue Plasma
[1] = 0 mg/kg, 72 h, dose level Control, time 3 day
[2] = 0 mg/kg, 120 h, dose level Control, time 5 day
[3] = 2 mg/kg, 72 h, dose level Low, time 3 day

## CCC(=O)O[C@]1(C(=O)CCl)[C@@H](C)C[C@H]2[C@@H]3CCC4=CC(=O)C=C[C@]4(C)[C@@]3(F)[C@@H](O)C[C@@]21C [CLOBETASOL PROPIONATE]
[1]
  ABSOLUTE BASOPHIL: 0 CELLS/uL
  ABSOLUTE EOSINOPHIL: 42.67 CELLS/uL
  ABSOLUTE LYMPHOCYTE: 10202 CELLS/uL
  ABSOLUTE MONOCYTE: 261.5 CELLS/uL
  ABSOLUTE SEGMENTED NEUTROPHIL: 2193.83 CELLS/uL
  BASOPHIL: 0%
  EOSINOPHIL: 0.33%
  ERYTHROCYTE COUNT: 5.63 x10E6/uL
  HEMATOCRIT: 35.35%
  HEMOGLOBIN: 13.07 G/DL
  LEUKOCYTE COUNT: 12.7 x10E3/uL
  LYMPHOCYTE: 81.17%
  MEAN CORPUSCULAR HEMOGLOBIN: 23.23 pg
  MEAN CORPUSCULAR HEMOGLOBIN CONCENTRATION: 36.97 G/DL
  MEAN CORPUSCULAR VOLUME: 62.82 fL
  MONOCYTE: 2%
  NEUTROPHIL: 16.5%
  NUCLEATED RED BLOOD CELLS: 0 /100WBC
  PLATELET COUNT: 1180.33 x10E3/uL
  ALANINE AMINOTRANSFERASE: 48.67 u/L
  ALBUMIN: 4.08 G/DL
  ALKALINE PHOSPHATASE: 360.67 u/L
  ASPARTATE AMINOTRANSFERASE: 85.5 u/L
  BLOOD UREA NITROGEN: 17.83 mg/dL
  CARBON DIOXIDE: 26.17 mmol/L
  CHLORIDE: 101.83 MEQ/L
  CHOLESTEROL: 71 mg/dL
  CREATINE PHOSPHOKINASE: 515.17 u/L
  CREATININE: 0.22 mg/dL
  GLUCOSE: 192.5 mg/dL
  LACTATE DEHYDROGENASE: 214.67 u/L
  LIPASE: 8.5 u/L
  PHOSPHORUS: 12.95 mg/dL
  POTASSIUM: 6.39 MEQ/L
  SODIUM: 142.38 MEQ/L
  TOTAL BILIRUBIN: 0.18 mg/dL
  TOTAL PROTEIN: 5.95 G/DL
  URIC ACID: 1.83 mg/dL
[2]
  ABSOLUTE BASOPHIL: 0 CELLS/uL
  ABSOLUTE EOSINOPHIL: 188.5 CELLS/uL
  ABSOLUTE LYMPHOCYTE: 12360.83 CELLS/uL
  ABSOLUTE MONOCYTE: 64.33 CELLS/uL
  ABSOLUTE SEGMENTED NEUTROPHIL: 1986.33 CELLS/uL
  BASOPHIL: 0%
  EOSINOPHIL: 1.33%
  ERYTHROCYTE COUNT: 5.52 x10E6/uL
  HEMATOCRIT: 35.82%
  HEMOGLOBIN: 13.25 G/DL
  LEUKOCYTE COUNT: 14.6 x10E3/uL
  LYMPHOCYTE: 84.5%
  MEAN CORPUSCULAR HEMOGLOBIN: 24.05 pg
  MEAN CORPUSCULAR HEMOGLOBIN CONCENTRATION: 36.98 G/DL
  MEAN CORPUSCULAR VOLUME: 64.97 fL
  MONOCYTE: 0.5%
  NEUTROPHIL: 13.67%
  NUCLEATED RED BLOOD CELLS: 0 /100WBC
  PLATELET COUNT: 1297.83 x10E3/uL
  ALANINE AMINOTRANSFERASE: 51.17 u/L
  ALBUMIN: 4.08 G/DL
  ALKALINE PHOSPHATASE: 393.17 u/L
  ASPARTATE AMINOTRANSFERASE: 111 u/L
  BLOOD UREA NITROGEN: 18.17 mg/dL
  CARBON DIOXIDE: 25 mmol/L
  CHLORIDE: 105.17 MEQ/L
  CHOLESTEROL: 65.5 mg/dL
  CREATINE PHOSPHOKINASE: 911.5 u/L
  CREATININE: 0.21 mg/dL
  GLUCOSE: 183 mg/dL
  LACTATE DEHYDROGENASE: 189 u/L
  LIPASE: 8.33 u/L
  PHOSPHORUS: 12.78 mg/dL
  POTASSIUM: 6.05 MEQ/L
  SODIUM: 144.57 MEQ/L
  TOTAL BILIRUBIN: 0.25 mg/dL
  TOTAL PROTEIN: 5.83 G/DL
  URIC ACID: 1.58 mg/dL
[3]
  ABSOLUTE BASOPHIL: 0 CELLS/uL
  ABSOLUTE EOSINOPHIL: 0 CELLS/uL
  ABSOLUTE LYMPHOCYTE: 788.33 CELLS/uL
  ABSOLUTE MONOCYTE: 9 CELLS/uL
  ABSOLUTE SEGMENTED NEUTROPHIL: 1836 CELLS/uL
  BASOPHIL: 0%
  EOSINOPHIL: 0%
  ERYTHROCYTE COUNT: 5.93 x10E6/uL
  HEMATOCRIT: 37.1%
  HEMOGLOBIN: 13.23 G/DL
  LEUKOCYTE COUNT: 2.63 x10E3/uL
  LYMPHOCYTE: 30%
  MEAN CORPUSCULAR HEMOGLOBIN: 22.33 pg
  MEAN CORPUSCULAR HEMOGLOBIN CONCENTRATION: 35.67 G/DL
  MEAN CORPUSCULAR VOLUME: 62.57 fL
  MONOCYTE: 0.33%
  NEUTROPHIL: 69.67%
  NUCLEATED RED BLOOD CELLS: 0 /100WBC
  PLATELET COUNT: 1219.67 x10E3/uL
  ALANINE AMINOTRANSFERASE: 121.33 u/L
  ALBUMIN: 4.93 G/DL
  ALKALINE PHOSPHATASE: 505.33 u/L
  ASPARTATE AMINOTRANSFERASE: 281.67 u/L
  BLOOD UREA NITROGEN: 25.67 mg/dL
  CARBON DIOXIDE: 21.33 mmol/L
  CHLORIDE: 99.33 MEQ/L
  CHOLESTEROL: 138.33 mg/dL
  CREATINE PHOSPHOKINASE: 1714.67 u/L
  CREATININE: 0.33 mg/dL
  GLUCOSE: 547 mg/dL
  LACTATE DEHYDROGENASE: 291 u/L
  LIPASE: 10 u/L
  PHOSPHORUS: 12.6 mg/dL
  POTASSIUM: 5.98 MEQ/L
  SODIUM: 140.33 MEQ/L
  TOTAL BILIRUBIN: 0.2 mg/dL
  TOTAL PROTEIN: 7.07 G/DL
  URIC ACID: 2.33 mg/dL
